Reference: ChEMBL document CHEMBL1138726, “Novel diarylsulfonylurea derivatives as potent antimitotic agents” (Bioorg Med Chem Lett, 2004)

Assays:
A549 = assay: Inhibition of human non-small cell lung cancer A549 cell proliferation; format: functional
HCT-116 = assay: Compound was tested for growth inhibition of human colon carcinoma HCT116 cell line; format: functional
NCI-H460 = assay: Compound was tested for growth inhibition of human non-small cell lung cancer NCI-H460 cell line; format: functional
[1] = Compound was tested for inhibition of tubulin polymerisation
[2] = Compound was tested for inhibition of tubulin polymerisation at 1 uM
NCI/ADR-RES = assay: Compound was tested for growth inhibition of multidrug resistant tumor MCF-7/ADR cell line; format: functional; settings: Homo sapiens
NCI-H226 = assay: Compound was tested for growth inhibition of multidrug resistant tumor NCI-H226 cell line; format: functional; settings: Homo sapiens
MCF7 = assay: Compound was tested for growth inhibition of MCF-7 cell line (non multidrug resistant); format: functional; settings: Homo sapiens
A498 = assay: Compound was tested for growth inhibition of multidrug resistant tumor A498 cell line; format: functional; settings: Homo sapiens
HCT-15 = assay: Compound was tested for growth inhibition of multidrug resistant tumor HCT-15 cell line; format: functional; settings: Homo sapiens

O=C(c1ccc([N+](=O)[O-])o1)N1CCc2cc(S(=O)(=O)N3C[C@H](c4ccccc4)NC3=O)ccc21
GI50 (A549): 950 nM | GI50 (HCT-116): 270 nM | GI50 (NCI-H460): 950 nM | IC50 [1]: 40000 nM

O=C(c1ccncc1)N1CCc2cc(S(=O)(=O)N3C[C@H](c4ccccc4)NC3=O)ccc21
GI50 (A549): 130 nM | GI50 (HCT-116): 80 nM | GI50 (NCI-H460): 90 nM | IC50 [1]: 10300 nM

O=C(Cc1cccs1)N1CCc2cc(S(=O)(=O)N3C[C@H](c4ccccc4)NC3=O)ccc21
GI50 (A549): 7 nM | GI50 (HCT-116): 6 nM | GI50 (NCI-H460): 7 nM | IC50 [1]: < 1000 nM | inhibition [2]: 82%

O=C(NCCN1CCOCC1)N1CCc2cc(S(=O)(=O)N3C[C@H](c4ccccc4)NC3=O)ccc21
GI50 (A549): 2800 nM | GI50 (HCT-116): 1200 nM | GI50 (NCI-H460): 1000 nM

Nc1ccc(C(=O)N2CCc3cc(S(=O)(=O)N4C[C@H](c5ccccc5)NC4=O)ccc32)cc1
GI50 (NCI/ADR-RES): 2000 nM | GI50 (NCI-H226): 100 nM | GI50 (A549): 20 nM | GI50 (HCT-116): 10 nM | GI50 (MCF7): 10 nM | GI50 (A498): 1200 nM | GI50 (HCT-15): 120 nM | GI50 (NCI-H460): 20 nM | IC50 [1]: 1500 nM

CC(=O)O[C@H]1C(=O)[C@@]2(C)[C@H]([C@H](OC(=O)c3ccccc3)[C@]3(O)C[C@H](OC(=O)[C@H](O)[C@@H](NC(=O)c4ccccc4)c4ccccc4)C(C)=C1C3(C)C)[C@]1(OC(C)=O)CO[C@@H]1C[C@@H]2O [PACLITAXEL]
GI50 (NCI/ADR-RES): 8000 nM | GI50 (NCI-H226): 20000 nM | GI50 (A549): 10 nM | GI50 (HCT-116): < 1 nM | GI50 (MCF7): 10 nM | GI50 (A498): 3500 nM | GI50 (HCT-15): 300 nM | GI50 (NCI-H460): 7 nM

O=C(c1cc(Cl)nc(Cl)c1)N1CCc2cc(S(=O)(=O)N3C[C@H](c4ccccc4)NC3=O)ccc21
GI50 (A549): 380 nM | GI50 (HCT-116): 380 nM | GI50 (NCI-H460): 700 nM | IC50 [1]: 22000 nM

Nc1ccc(C(=O)N2CCc3cc(S(=O)(=O)N4CC(c5ccc(F)cc5)NC4=O)ccc32)cc1 (centres undefined)
GI50 (A549): 1200 nM | GI50 (HCT-116): 1100 nM | GI50 (NCI-H460): 900 nM

CCOC(=O)N1CCc2cc(S(=O)(=O)N3C[C@H](c4ccccc4)NC3=O)ccc21
GI50 (A549): 80 nM | GI50 (HCT-116): 80 nM | GI50 (NCI-H460): 80 nM | IC50 [1]: 1500 nM

Nc1ccc(C(=O)Nc2ccc(S(=O)(=O)N3C[C@H](c4ccccc4)NC3=O)cc2Cl)cc1
GI50 (A549): 60 nM | GI50 (HCT-116): 60 nM | GI50 (NCI-H460): 60 nM | IC50 [1]: 5500 nM

O=C(NC1CCCCC1)N1CCc2cc(S(=O)(=O)N3C[C@H](c4ccccc4)NC3=O)ccc21
GI50 (NCI/ADR-RES): 1300 nM | GI50 (NCI-H226): 150 nM | GI50 (A549): 60 nM | GI50 (HCT-116): 50 nM | GI50 (MCF7): 150 nM | GI50 (A498): 700 nM | GI50 (HCT-15): 120 nM | GI50 (NCI-H460): 80 nM | IC50 [1]: 2000 nM

CN1CCN(CCOC(=O)N2CCc3cc(S(=O)(=O)N4C[C@H](c5ccccc5)NC4=O)ccc32)CC1
GI50 (A549): 1000 nM | GI50 (HCT-116): 1000 nM | GI50 (NCI-H460): 900 nM | IC50 [1]: 30000 nM

O=C(c1ccco1)N1CCc2cc(S(=O)(=O)N3CC(c4cccs4)NC3=O)ccc21 (centres undefined)
GI50 (A549): 60 nM | GI50 (HCT-116): 70 nM | GI50 (NCI-H460): 60 nM | IC50 [1]: 4000 nM

CC[C@]1(O)C[C@H]2CN(CCc3c([nH]c4ccccc34)[C@@](C(=O)OC)(c3cc4c(cc3OC)N(C=O)[C@H]3[C@@](O)(C(=O)OC)[C@H](OC(C)=O)[C@]5(CC)C=CCN6CC[C@]43[C@@H]65)C2)C1 [VINCRISTINE]
GI50 (A549): 20 nM | GI50 (HCT-116): 1 nM | GI50 (NCI-H460): 3 nM

CCOC(=O)Nc1ccc(S(=O)(=O)N2C[C@H](c3ccccc3)NC2=O)cc1C
GI50 (NCI/ADR-RES): 150 nM | GI50 (NCI-H226): 450 nM | GI50 (A549): 40 nM | GI50 (HCT-116): 70 nM | GI50 (MCF7): 150 nM | GI50 (A498): 130 nM | GI50 (HCT-15): 100 nM | GI50 (NCI-H460): 70 nM | IC50 [1]: 6000 nM

O=C(c1cccs1)N1CCc2cc(S(=O)(=O)N3C[C@H](c4ccccc4)NC3=O)ccc21
GI50 (A549): 20 nM | GI50 (HCT-116): 10 nM | GI50 (NCI-H460): 20 nM | IC50 [1]: 1600 nM

Nc1ccc(C(=O)N2CCc3cc(S(=O)(=O)N4CC(c5cccs5)NC4=O)ccc32)cc1 (centres undefined)
GI50 (A549): 180 nM | GI50 (HCT-116): 300 nM | GI50 (NCI-H460): 250 nM | IC50 [1]: 10500 nM

O=C(CNc1ccccc1)N1CCc2cc(S(=O)(=O)N3C[C@H](c4ccccc4)NC3=O)ccc21
GI50 (NCI/ADR-RES): 180 nM | GI50 (NCI-H226): 150 nM | GI50 (A549): 80 nM | GI50 (HCT-116): 50 nM | GI50 (MCF7): 150 nM | GI50 (A498): 150 nM | GI50 (HCT-15): 100 nM | GI50 (NCI-H460): 150 nM | IC50 [1]: 3500 nM
